Patent US20210009564A1, “CALPAIN MODULATORS AND THERAPEUTIC USES THEREOF” (BLADE THERAPERTICS, INC., priority 2018, published 2021)

Key:
[1] = system: Calpain activity in SH-SY5Y cells; test: SH-SY5Y spectrin breakdown product (SBDP-150) western blot assay; type: cell-based; details: Homo sapiens, read-out: SH-SY5Y Spectrin IC50
[2] = molecular target: T1, Human Calpain 1/NS1 (Homo sapiens, UniProt P07384); test: Calpain inhibition, continuous fluorescence (FRET substrate) assay, calpain 1; type: biochemical; details: SensoLyte 520 FRET substrate, 25C
T1 sequence (P07384 1-714): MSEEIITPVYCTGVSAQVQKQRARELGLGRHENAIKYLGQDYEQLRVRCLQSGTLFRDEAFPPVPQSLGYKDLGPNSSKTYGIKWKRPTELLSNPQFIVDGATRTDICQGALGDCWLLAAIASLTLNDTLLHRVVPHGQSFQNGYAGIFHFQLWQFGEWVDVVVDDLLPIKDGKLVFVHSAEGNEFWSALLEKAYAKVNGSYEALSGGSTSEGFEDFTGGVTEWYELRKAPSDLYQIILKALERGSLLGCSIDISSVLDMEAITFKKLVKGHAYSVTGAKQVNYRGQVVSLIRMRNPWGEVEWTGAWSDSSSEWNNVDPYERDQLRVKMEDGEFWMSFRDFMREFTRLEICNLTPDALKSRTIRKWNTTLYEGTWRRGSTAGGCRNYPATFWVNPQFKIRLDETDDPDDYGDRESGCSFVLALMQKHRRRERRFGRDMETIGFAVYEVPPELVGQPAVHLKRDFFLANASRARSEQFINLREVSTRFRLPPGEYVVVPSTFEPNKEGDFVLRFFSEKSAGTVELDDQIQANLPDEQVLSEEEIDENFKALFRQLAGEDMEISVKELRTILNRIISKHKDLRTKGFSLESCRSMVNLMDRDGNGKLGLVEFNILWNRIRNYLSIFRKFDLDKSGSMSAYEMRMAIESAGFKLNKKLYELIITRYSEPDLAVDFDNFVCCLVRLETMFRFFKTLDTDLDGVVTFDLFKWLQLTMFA
T1 sequence (P04632 1-268 partner): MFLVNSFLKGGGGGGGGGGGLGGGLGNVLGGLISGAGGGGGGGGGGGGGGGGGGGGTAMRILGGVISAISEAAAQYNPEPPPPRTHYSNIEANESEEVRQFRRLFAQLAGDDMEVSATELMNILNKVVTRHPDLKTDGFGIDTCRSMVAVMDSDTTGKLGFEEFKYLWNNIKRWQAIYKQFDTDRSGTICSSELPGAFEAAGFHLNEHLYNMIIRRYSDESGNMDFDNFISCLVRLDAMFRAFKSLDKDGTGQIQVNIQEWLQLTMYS
Method in brief: (§1)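 Calpains preincubated with serially diluted inhibitors at 25 °C in 50 mM Tris pH 7.5, 100 mM NaCl, 1 mM DTT; CaCl2 plus 5-FAM/QXL 520 FRET substrate started the reaction. Fluorescence (490/520 nm) read 10 min; rates from 1-5 min slopes, IC50 from 4-parameter logistic fit.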

[3] = system: Calpain activity in SH-SY5Y cells; test: SH-SY5Y Suc-LLVY-AMC fluorescence assay; type: cell-based; details: Homo sapiens, read-out: SH-SY5Y + AMC IC50
[4] = molecular target: T2, Human Calpain 2/NS1 (Homo sapiens, UniProt P17655); test: Calpain inhibition, continuous fluorescence (FRET substrate) assay, calpain 2; type: biochemical; details: SensoLyte 520 FRET substrate, 25C
T2 sequence (P17655 1-700): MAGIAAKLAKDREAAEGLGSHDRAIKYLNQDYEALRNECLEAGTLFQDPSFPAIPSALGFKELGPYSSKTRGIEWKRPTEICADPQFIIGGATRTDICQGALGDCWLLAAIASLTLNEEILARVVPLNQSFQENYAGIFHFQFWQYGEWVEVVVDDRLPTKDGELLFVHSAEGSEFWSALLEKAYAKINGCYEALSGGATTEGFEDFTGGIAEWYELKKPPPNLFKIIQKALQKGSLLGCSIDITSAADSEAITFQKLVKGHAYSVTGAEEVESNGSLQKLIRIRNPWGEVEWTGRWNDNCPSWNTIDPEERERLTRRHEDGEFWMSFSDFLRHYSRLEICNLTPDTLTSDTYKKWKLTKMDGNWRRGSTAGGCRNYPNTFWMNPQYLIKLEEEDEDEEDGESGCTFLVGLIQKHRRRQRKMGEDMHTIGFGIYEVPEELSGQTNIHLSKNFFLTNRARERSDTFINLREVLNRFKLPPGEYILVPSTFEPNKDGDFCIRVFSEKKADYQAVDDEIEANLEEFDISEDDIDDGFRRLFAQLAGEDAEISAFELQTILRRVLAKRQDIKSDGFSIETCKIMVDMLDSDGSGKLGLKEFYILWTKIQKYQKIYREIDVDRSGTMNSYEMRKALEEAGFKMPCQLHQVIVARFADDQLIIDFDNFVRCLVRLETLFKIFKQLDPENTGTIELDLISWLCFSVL
T2 sequence (P04632 1-268 partner): T1 sequence (P04632 1-268 partner)
Method in brief: as §1

[5] = molecular target: T3, Human Calpain 9/NS1 (Homo sapiens, UniProt O14815); test: Calpain inhibition, continuous fluorescence (FRET substrate) assay, calpain 9; type: biochemical; details: SensoLyte 520 FRET substrate, 25C
T3 sequence (O14815 1-690): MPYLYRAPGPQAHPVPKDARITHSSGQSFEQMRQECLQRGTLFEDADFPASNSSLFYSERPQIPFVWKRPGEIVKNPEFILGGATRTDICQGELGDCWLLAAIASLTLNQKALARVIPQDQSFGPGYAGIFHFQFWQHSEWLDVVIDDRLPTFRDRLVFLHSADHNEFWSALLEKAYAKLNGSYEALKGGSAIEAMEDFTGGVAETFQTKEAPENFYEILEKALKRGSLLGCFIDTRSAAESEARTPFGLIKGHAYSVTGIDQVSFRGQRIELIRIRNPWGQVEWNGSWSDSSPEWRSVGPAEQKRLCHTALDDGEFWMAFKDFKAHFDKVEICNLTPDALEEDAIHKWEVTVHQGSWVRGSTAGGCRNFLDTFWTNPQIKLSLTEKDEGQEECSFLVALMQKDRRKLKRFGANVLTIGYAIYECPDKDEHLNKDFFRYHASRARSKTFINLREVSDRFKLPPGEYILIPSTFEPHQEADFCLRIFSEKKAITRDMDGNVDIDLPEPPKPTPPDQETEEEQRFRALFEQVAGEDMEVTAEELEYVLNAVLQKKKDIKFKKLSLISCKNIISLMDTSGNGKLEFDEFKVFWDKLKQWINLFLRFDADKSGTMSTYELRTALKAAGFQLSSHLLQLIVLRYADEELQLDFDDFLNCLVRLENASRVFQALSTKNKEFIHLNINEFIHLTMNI
T3 sequence (P04632 1-268 partner): T1 sequence (P04632 1-268 partner)
Method in brief: as §1

[6] = SH-SY5Y cells, 25 uM A23187, SBDP-150 western blot
[7] = SH-SY5Y cells, 100 uM Suc-LLVY-AMC

Structure (SMILES)	IC50 [1, 6] [µM]	IC50 [2] [µM]	IC50 [3, 7] [µM]	IC50 [4] [µM]	IC50 [5] [µM]	IC50 ([1]; SH-SY5Y) [µM]	IC50 ([3]; SH-SY5Y) [µM]
COC(=O)C(=O)C(Cc1ccccc1)NC(=O)c1oc(C)nc1-c1ccccc1F (centres unmarked) [Compound 42, METHYL 3-(4-(2-FLUOROPHENYL)-2-METHYLOXAZOLE-5-CARBOXAMIDO)-2-OXO-4-PHENYLBUTANOATE]	< 10	< 3	< 10	< 3	< 3	–	–
Cn1cc(C(=O)NC(Cc2ccccc2)C(=O)C(N)=O)c(-c2cccc3sccc23)n1 (centres unmarked) [Compound 102, N-(4-AMINO-3,4-DIOXO-1-PHENYLBUTAN-2-YL)-3-(BENZO[b]THIOPHEN-4-YL)-1-METHYL-1H-PYRAZOLE-4-CARBOXAMIDE]	< 10	< 3	> 25	< 3	< 3	–	–
Cn1cc(C(=O)NC(Cc2ccc(Cl)cc2)C(=O)C(N)=O)c(-c2ccccc2F)n1 (centres unmarked) [Compound 97, N-(4-AMINO-1-(4-CHLOROPHENYL)-3,4-DIOXOBUTAN-2-YL)-3-(2-FLUOROPHENYL)-1-METHYL-1H-PYRAZOLE-4-CARBOXAMIDE]	< 10	< 3	< 10	< 3	< 3	–	–
Cc1cc(C(=O)NC(Cc2ccccc2)C(=O)C(N)=O)nn1-c1ncc(-c2ccccc2)cn1 (centres unmarked) [Compound 29, N-(4-AMINO-3,4-DIOXO-1-PHENYLBUTAN-2-YL)-5-METHYL-1-(5-PHENYLPYRIMIDIN-2-YL)-1H-PYRAZOLE-3-CARBOXAMIDE]	–	3 to 10	–	< 3	3 to 10	> 25	< 10
NC(=O)C(=O)C(Cc1ccccc1)NC(=O)c1nsnc1-c1ccoc1Cl (centres unmarked) [Compound 79, N-(4-AMINO-3,4-DIOXO-1-PHENYLBUTAN-2-YL)-4-(2-CHLOROFURAN-3-YL)-1,2,5-THIADIAZOLE-3-CARBOXAMIDE]	< 10	< 3	< 10	< 3	< 3	–	–
NC(=O)C(=O)C(Cc1ccccc1)NC(=O)c1cn(C(F)F)nc1-c1cc(Cl)oc1Cl (centres unmarked) [Compound 36, N-(4-AMINO-3,4-DIOXO-1-PHENYLBUTAN-2-YL)-3-(2,5-DICHLOROFURAN-3-YL)-1-(DIFLUOROMETHYL)-1H-PYRAZOLE-4-CARBOXAMIDE]	< 10	< 3	< 10	< 3	< 3	–	–
Cc1cc(C(=O)NC(Cc2ccccc2)C(=O)C(N)=O)nn1-c1ncc2ccccc2n1 (centres unmarked) [Compound 27, N-(4-AMINO-3,4-DIOXO-1-PHENYLBUTAN-2-YL)-5-METHYL-1-(QUINAZOLIN-2-YL)-1H-PYRAZOLE-3-CARBOXAMIDE]	> 25	> 10	< 10	3 to 10	3 to 10	–	–
NC(=O)C(=O)C(Cc1ccccc1)NC(=O)c1cn(C(F)F)nc1-c1cccc2oc(=O)[nH]c12 (centres unmarked) [Compound 50, N-(4-AMINO-3,4-DIOXO-1-PHENYLBUTAN-2-YL)-1-(DIFLUOROMETHYL)-3-(2-OXO-2,3-DIHYDROBENZO[D]OXAZOL-4-YL)-1H-PYRAZOLE-4-CARBOXAMIDE]	10 to 25	< 3	10 to 25	< 3	< 3	–	–
CNC(=O)c1cccc(-c2nn(C)cc2C(=O)NC(Cc2ccccc2)C(=O)C(N)=O)c1 (centres unmarked) [Compound 17]	–	< 3	–	< 3	< 3	> 25	10 to 25
Cn1ncc2cccc(-c3nn(C(F)F)cc3C(=O)NC(Cc3ccccc3)C(=O)C(N)=O)c21 (centres unmarked) [Compound 34, N-(4-AMINO-3,4-DIOXO-1-PHENYLBUTAN-2-YL)-1-(DIFLUOROMETHYL)-3-(1-METHYL-1H-INDAZOL-7-YL)-1H-PYRAZOLE-4-CARBOXAMIDE]	10 to 25	< 3	< 10	< 3	< 3	–	–
Cc1occc1-c1nsnc1C(=O)NC(Cc1ccccc1)C(=O)C(N)=O (centres unmarked) [Compound 46, N-(4-AMINO-3,4-DIOXO-1-PHENYLBUTAN-2-YL)-4-(2-METHYLFURAN-3-YL)-1,2,5-THIADIAZOLE-3-CARBOXAMIDE]	< 10	< 3	< 10	< 3	< 3	–	–
NC(=O)C(=O)C(Cc1ccccc1)NC(=O)c1cn(C(F)F)nc1-c1cccc2cccnc12 (centres unmarked) [Compound 18, N-(4-AMINO-3,4-DIOXO-1-PHENYLBUTAN-2-YL)-1-(DIFLUOROMETHYL)-3-(QUINOLIN-8-YL)-1H-PYRAZOLE-4-CARBOXAMIDE]	> 25	< 3	< 10	< 3	< 3	–	–
Cn1cc(C(=O)NC(Cc2ccccc2)C(=O)C(N)=O)c(-c2cccc3nn(C)cc23)n1 (centres unmarked) [Compound 69, N-(4-AMINO-3,4-DIOXO-1-PHENYLBUTAN-2-YL)-1-METHYL-3-(2-METHYL-2H-INDAZOL-4-YL)-1H-PYRAZOLE-4-CARBOXAMIDE]	10 to 25	< 3	10 to 25	< 3	< 3	–	–
